Data as given in ChEMBL document CHEMBL4616582, “Green recipes to quinoline: A review” (Eur J Med Chem, 2019).
≈ marks a conversion by molar mass, not a printed value.

Columns and labels:
B16-F10 = assay: Cytotoxicity against mouse B16F10 cells assessed as reduction in cell viability; format: functional, cell-based
Plasmodium falciparum = assay: Antimalarial activity against chloroquine and quinine sensitive Plasmodium falciparum; format: functional, organism-based
Bacillus subtilis = assay: Antibacterial activity against Bacillus subtilis MTCC 121 after 24 hrs by agar well diffusion method; format: functional; conditions: MTCC 121, 24 h
HepG2 = assay: Cytotoxicity against human HepG2 cells assessed as reduction in cell viability by MTT assay; format: functional, cell-based

O=c1oc2ccccc2c2nc3c(ccc4cc[nH]c43)c(-c3ccccc3Br)c12
IC50 (B16-F10): 70.7 µM

Cc1nn(-c2ccccc2)c(Oc2ccccc2F)c1C1C(C#N)=C(N)N(Nc2ccc(Cl)cc2)C2=C1C(=O)CC(C)(C)C2 (centres undefined)
IC50 (Plasmodium falciparum): 0.042 to 0.09 µg/mL (≈ 0.069 to 0.148 µM)

O=C1CCCC2=C1C1(C(=O)N2C2CCCCC2)C2=C(Nc3ccc(Br)cc31)c1ccccc1C2=O (centres undefined)
MIC (Bacillus subtilis): 8 µg/mL (≈ 15.1 µM)

COc1ccc(-c2c3ccc4cc[nH]c4c3nc3c2c(=O)oc2ccccc23)cc1
IC50 (B16-F10): 70.7 µM

O=c1oc2ccccc2c2nc3c(ccc4cc[nH]c43)c(-c3ccc(C(F)(F)F)cc3)c12
IC50 (B16-F10): 70.7 µM

COc1ccc(NN2C(N)=C(C#N)C(c3c(C)nn(-c4ccccc4)c3Oc3cccc(F)c3)C3=C2CC(C)(C)CC3=O)cc1 (centres undefined)
IC50 (Plasmodium falciparum): 0.042 to 0.09 µg/mL (≈ 0.0695 to 0.149 µM)

O=c1oc2ccccc2c2nc3c(ccc4cc[nH]c43)c(-c3cccnc3Cl)c12
IC50 (B16-F10): 70.7 µM

O=c1c2c(Cl)cccc2n(-c2ccccc2)c2ss/c(=N\c3ccccc3)c12
IC50 (HepG2): 0.984 µM

Cc1ccc(Br)c2c(=O)c3/c(=N/c4ccccc4)ssc3n(-c3ccccc3)c12
IC50 (HepG2): 0.984 µM

O=Cc1ccc([N+](=O)[O-])cc1
IC50 (B16-F10): 70.7 µM

CC(=O)c1cc(F)c(Cl)cc1Cl
IC50 (HepG2): 0.984 µM

Cc1ccc(N2C(=O)C3(C4=C(Nc5ccc(Br)cc53)c3ccccc3C4=O)C3=C2CCCC3=O)cc1 (centres undefined)
MIC (Bacillus subtilis): 8 µg/mL (≈ 14.9 µM)

Cc1ccc(N2C(=O)C3(C4=C(Nc5ccc([N+](=O)[O-])cc53)c3ccccc3C4=O)C3=C2CCCC3=O)cc1 (centres undefined)
MIC (Bacillus subtilis): 8 µg/mL (≈ 15.9 µM)

O=Cc1cccnc1Cl [2-CHLORONICOTINALDEHYDE]
IC50 (B16-F10): 70.7 µM

CCCCN1C(=O)C2(C3=C(Nc4ccc(Br)cc42)c2ccccc2C3=O)C2=C1CC(C)(C)CC2=O (centres undefined)
MIC (Bacillus subtilis): 8 µg/mL (≈ 15.1 µM)

O=C1CCCC2=C1C1(C(=O)N2c2ccc(Br)cc2)C2=C(Nc3ccc([N+](=O)[O-])cc31)c1ccccc1C2=O (centres undefined)
MIC (Bacillus subtilis): 8 µg/mL (≈ 14.1 µM)

O=C1CCCC2=C1C1(C(=O)N2c2ccc(Cl)cc2)C2=C(Nc3ccccc31)c1ccccc1C2=O (centres undefined)
MIC (Bacillus subtilis): 8 µg/mL (≈ 16.7 µM)

O=Cc1ccccc1Br
IC50 (B16-F10): 70.7 µM

O=c1oc2ccccc2c2nc3c(ccc4cc[nH]c43)c(-c3cccc(Cl)c3Cl)c12
IC50 (B16-F10): 70.7 µM

COc1ccc(NN2C(N)=C(C#N)C(c3c(C)nn(-c4ccccc4)c3Oc3ccccc3F)C3=C2CC(C)(C)CC3=O)cc1 (centres undefined)
IC50 (Plasmodium falciparum): 0.042 to 0.09 µg/mL (≈ 0.0695 to 0.149 µM)

O=c1oc2ccccc2c2nc3c(ccc4cc[nH]c43)c(-c3ccc([N+](=O)[O-])cc3)c12
IC50 (B16-F10): 70.7 µM

Cc1ccc(C=O)cc1
IC50 (B16-F10): 70.7 µM

CC(=O)c1ccc(Cl)c(Cl)c1
IC50 (HepG2): 0.984 µM

CC1(C)CC(=O)C2=C(C1)N(c1ccccc1)C(=O)C21C2=C(Nc3ccccc31)c1ccccc1C2=O (centres undefined)
MIC (Bacillus subtilis): 8 µg/mL (≈ 16.9 µM)

CC(=O)c1cc(C)ccc1Br
IC50 (HepG2): 0.984 µM

O=Cc1cccc(Br)c1
IC50 (B16-F10): 70.7 µM

CC1(C)CC(=O)C2=C(C1)N(c1ccc(Cl)cc1)C(=O)C21C2=C(Nc3ccc([N+](=O)[O-])cc31)c1ccccc1C2=O (centres undefined)
MIC (Bacillus subtilis): 8 µg/mL (≈ 14.5 µM)

O=c1cc(O)c2cc(Br)ccc2o1
IC50 (B16-F10): 70.7 µM

O=Cc1cccc(Cl)c1Cl
IC50 (B16-F10): 70.7 µM

CC1(C)CC(=O)C2=C(C1)N(c1ccco1)C(=O)C21C2=C(Nc3ccc(Br)cc31)c1ccccc1C2=O (centres undefined)
MIC (Bacillus subtilis): 8 µg/mL (≈ 14.8 µM)

Cc1nn(-c2ccccc2)c(Oc2ccccc2F)c1C1C(C#N)=C(N)N(Nc2ccc(Br)cc2)C2=C1C(=O)CC(C)(C)C2 (centres undefined)
IC50 (Plasmodium falciparum): 0.042 to 0.09 µg/mL (≈ 0.0643 to 0.138 µM)

CC(C)=CCC[C@]1(C)C=Cc2c(O)c3c(c(CC=C(C)C)c2O1)O[C@]12C(=C[C@@H]4C[C@H]1C(C)(C)O[C@@]2(C/C=C(/C)C(=O)O)C4=O)C3=O [GAMBOGIC ACID]
IC50 (HepG2): 1.55 µM

Cc1nn(-c2ccccc2)c(Oc2cccc(C(F)(F)F)c2)c1C1C(C#N)=C(N)N(Nc2ccc(Br)cc2)C2=C1C(=O)CC(C)(C)C2 (centres undefined)
IC50 (Plasmodium falciparum): 0.042 to 0.09 µg/mL (≈ 0.0597 to 0.128 µM)

S=C=Nc1ccccc1 [PHENYLISOTHIOCYANATE]
IC50 (HepG2): 0.984 µM

O=c1oc2ccccc2c2nc3c(ccc4cc[nH]c43)c(-c3ccccn3)c12
IC50 (B16-F10): 70.7 µM

O=C1CCCC2=C1C1(C(=O)N2c2ccccc2)C2=C(Nc3ccc(Br)cc31)c1ccccc1C2=O (centres undefined)
MIC (Bacillus subtilis): 8 µg/mL (≈ 15.3 µM)

O=C1CCCC2=C1C1(C(=O)N2c2ccccc2)C2=C(Nc3ccccc31)c1ccccc1C2=O (centres undefined)
MIC (Bacillus subtilis): 8 µg/mL (≈ 18 µM)

O=Cc1ccc(F)cc1
IC50 (B16-F10): 70.7 µM

CC1(C)CC(=O)C2=C(C1)N(c1ccc(Br)cc1)C(=O)C21C2=C(Nc3ccccc31)c1ccccc1C2=O (centres undefined)
MIC (Bacillus subtilis): 8 µg/mL (≈ 14.5 µM)

CC(=O)c1ccc(F)cc1
IC50 (HepG2): 0.984 µM

O=Cc1ccc(Cl)cc1Cl
IC50 (B16-F10): 70.7 µM

COc1ccc(N2C(=O)C3(C4=C(Nc5ccccc53)c3ccccc3C4=O)C3=C2CC(C)(C)CC3=O)cc1 (centres undefined)
MIC (Bacillus subtilis): 8 µg/mL (≈ 15.9 µM)

Cc1nn(-c2ccccc2)c(Oc2ccc(F)cc2)c1C1C(C#N)=C(N)N(Nc2ccccc2)C2=C1C(=O)CC(C)(C)C2 (centres undefined)
IC50 (Plasmodium falciparum): 0.042 to 0.09 µg/mL (≈ 0.0731 to 0.157 µM)

Cc1nn(-c2ccccc2)c(Oc2ccc(F)cc2)c1C1C(C#N)=C(N)N(Nc2ccc(Br)cc2)C2=C1C(=O)CC(C)(C)C2 (centres undefined)
IC50 (Plasmodium falciparum): 0.042 to 0.09 µg/mL (≈ 0.0643 to 0.138 µM)

CC(=O)c1ccccc1 [ACETOPHENONE]
IC50 (HepG2): 0.984 µM

O=C1CCCC2=C1C1(C(=O)N2c2ccc(Cl)cc2)C2=C(Nc3ccc([N+](=O)[O-])cc31)c1ccccc1C2=O (centres undefined)
MIC (Bacillus subtilis): 8 µg/mL (≈ 15.3 µM)

CC(=O)c1ccc(Cl)cc1
IC50 (HepG2): 0.984 µM

O=c1oc2ccccc2c2nc3c(ccc4cc[nH]c43)c(-c3ccc(O)cc3)c12
IC50 (B16-F10): 70.7 µM

CC(=O)c1ccccc1Cl
IC50 (HepG2): 0.984 µM

Cc1ccc(-c2c3ccc4cc[nH]c4c3nc3c2c(=O)oc2ccccc23)cc1
IC50 (B16-F10): 70.7 µM

COc1ccc(N2C(=O)C3(C4=C(Nc5ccc(Br)cc53)c3ccccc3C4=O)C3=C2CCCC3=O)cc1 (centres undefined)
MIC (Bacillus subtilis): 8 µg/mL (≈ 14.5 µM)

Nc1cccc2cc[nH]c12
IC50 (B16-F10): 70.7 µM

Cc1nn(-c2ccccc2)c(Oc2cccc(F)c2)c1C1C(C#N)=C(N)N(Nc2ccccc2)C2=C1C(=O)CC(C)(C)C2 (centres undefined)
IC50 (Plasmodium falciparum): 0.042 to 0.09 µg/mL (≈ 0.0731 to 0.157 µM)

O=Cc1ccccc1 [BENZALDEHYDE]
IC50 (B16-F10): 70.7 µM

O=c1cc(O)c2ccccc2o1 [4-HYDROXYCOUMARINS]
IC50 (B16-F10): 70.7 µM

CC1(C)CC(=O)C2=C(C1)N(c1ccccc1)C(=O)C21C2=C(Nc3ccc(Br)cc31)c1ccccc1C2=O (centres undefined)
MIC (Bacillus subtilis): 8 µg/mL (≈ 14.5 µM)

Cc1ccc(N2C(=O)C3(C4=C(Nc5ccccc53)c3ccccc3C4=O)C3=C2CC(C)(C)CC3=O)cc1 (centres undefined)
MIC (Bacillus subtilis): 8 µg/mL (≈ 16.4 µM)

O=c1oc2ccccc2c2nc3c(ccc4cc[nH]c43)c(-c3c(Cl)cccc3Cl)c12
IC50 (B16-F10): 70.7 µM

CC1(C)CC(=O)C2=C(C1)N(c1ccccc1)C(=O)C21C2=C(Nc3ccc([N+](=O)[O-])cc31)c1ccccc1C2=O (centres undefined)
MIC (Bacillus subtilis): 8 µg/mL (≈ 15.5 µM)

O=c1c2c(Cl)ccc(Cl)c2n(-c2ccccc2)c2ss/c(=N\c3ccccc3)c12
IC50 (HepG2): 0.984 µM

O=c1c2ccc(Cl)cc2n(-c2ccccc2)c2ss/c(=N\c3ccccc3)c12
IC50 (HepG2): 0.984 µM

O=c1oc2ccccc2c2nc3c(ccc4cc[nH]c43)c(-c3cccc(Br)c3)c12
IC50 (B16-F10): 70.7 µM

O=c1oc2ccccc2c2nc3c(ccc4cc[nH]c43)c(-c3cccc4ccccc34)c12
IC50 (B16-F10): 70.7 µM

O=c1oc2ccccc2c2nc3c(ccc4cc[nH]c43)c(-c3ccc(Cl)cc3)c12
IC50 (B16-F10): 70.7 µM

O=c1cc(O)c2cc(F)ccc2o1
IC50 (B16-F10): 70.7 µM

O=c1cc(O)c2cc(Cl)ccc2o1
IC50 (B16-F10): 70.7 µM

O=c1oc2ccccc2c2nc3c(ccc4cc[nH]c43)c(-c3ccc(F)cc3)c12
IC50 (B16-F10): 70.7 µM

O=c1c2ccc(F)cc2n(-c2ccccc2)c2ss/c(=N\c3ccccc3)c12
IC50 (HepG2): 0.984 µM

O=Cc1ccc(C(F)(F)F)cc1
IC50 (B16-F10): 70.7 µM

O=Cc1ccc(Br)cc1
IC50 (B16-F10): 70.7 µM

O=C(O)c1cn(C2CC2)c2cc(N3CCNCC3)c(F)cc2c1=O [CIPROFLOXACIN]
MIC (Bacillus subtilis): 6.25 µg/mL (≈ 18.9 µM)

O=c1c2ccc(Br)cc2n(-c2ccccc2)c2ss/c(=N\c3ccccc3)c12
IC50 (HepG2): 0.984 µM

O=Cc1ccc(O)cc1 [4-HYDROXYBENZALDEHYDE]
IC50 (B16-F10): 70.7 µM

O=Cc1ccccn1 [2-PYRIDINECARBOXALDEHYDE]
IC50 (B16-F10): 70.7 µM

O=c1oc2ccccc2c2nc3c(ccc4cc[nH]c43)c(-c3ccc(Cl)cc3Cl)c12
IC50 (B16-F10): 70.7 µM

CC1(C)CC(=O)C2=C(C1)N(c1ccco1)C(=O)C21C2=C(Nc3ccc([N+](=O)[O-])cc31)c1ccccc1C2=O (centres undefined)
MIC (Bacillus subtilis): 8 µg/mL (≈ 15.8 µM)

COc1ccc(C=O)cc1 [ANISALDEHYDE]
IC50 (B16-F10): 70.7 µM

CC1(C)CC(=O)C2=C(C1)N(c1ccc(Cl)cc1)C(=O)C21C2=C(Nc3ccccc31)c1ccccc1C2=O (centres undefined)
MIC (Bacillus subtilis): 8 µg/mL (≈ 15.8 µM)

O=C1CCCC2=C1C1(C(=O)N2c2ccc(Br)cc2)C2=C(Nc3ccc(Br)cc31)c1ccccc1C2=O (centres undefined)
MIC (Bacillus subtilis): 8 µg/mL (≈ 13.3 µM)

O=c1oc2ccccc2c2nc3c(ccc4cc[nH]c43)c(-c3ccc(Br)cc3)c12
IC50 (B16-F10): 70.7 µM

O=c1oc2ccccc2c2nc3c(ccc4cc[nH]c43)c(-c3ccccc3)c12
IC50 (B16-F10): 70.7 µM

O=c1c2cc(Cl)c(Cl)cc2n(-c2ccccc2)c2ss/c(=N\c3ccccc3)c12
IC50 (HepG2): 0.984 µM

O=c1c2c(Cl)cc(Cl)c(F)c2n(-c2ccccc2)c2ss/c(=N\c3ccccc3)c12
IC50 (HepG2): 0.984 µM

O=Cc1ccc(Cl)cc1
IC50 (B16-F10): 70.7 µM

O=Cc1cccc2ccccc12
IC50 (B16-F10): 70.7 µM

CC(=O)c1ccc(Br)cc1
IC50 (HepG2): 0.984 µM

O=Cc1c(Cl)cccc1Cl
IC50 (B16-F10): 70.7 µM

CC(=O)c1cc(Cl)ccc1Cl
IC50 (HepG2): 0.984 µM

O=C1CCCC2=C1C1(C(=O)N2c2ccccc2)C2=C(Nc3ccc([N+](=O)[O-])cc31)c1ccccc1C2=O (centres undefined)
MIC (Bacillus subtilis): 8 µg/mL (≈ 16.3 µM)
